Like-named read-outs stand apart in the source and are kept apart here.
Experiments:
[1] = tested on: LXFS 573 SCLC patient-derived xenograft; type: in vivo
NCI-H1417 SCLC xenograft = type: in vivo
[2] = Etoposide at 24 mg/kg/day SC days 1-3 + Vehicle
[3] = etoposide monotherapy 24 mg/kg SC
[4] = etoposide monotherapy 24 mg/kg SC QD×3

Compound: COc1cc([C@@H]2c3cc4c(cc3[C@@H](O[C@@H]3O[C@@H]5CO[C@@H](C)O[C@H]5[C@H](O)[C@H]3O)[C@H]3COC(=O)[C@H]23)OCO4)cc(OC)c1O [Etoposide, etoposide, reference compound]
- % TGD [1, 2]: 50%
- T-C [1, 2]: 21 days
- median TTE [1, 2]: 63 days
- SS (number of study survivors) ([1]; Etoposide at 24 mg/kg/day SC days 1-3 + Vehicle, Day 133, N=8): 0 (na)
- % TGD [1, 3]: 50%
- TGD [1, 3]: 21 days
- % TGD (NCI-H1417 SCLC xenograft; 24 mg/kg Etoposide SC QD × 3): 92%
- T-C (NCI-H1417 SCLC xenograft; 24 mg/kg Etoposide SC QD × 3): 24 days
- median TTE (NCI-H1417 SCLC xenograft; 24 mg/kg Etoposide SC QD × 3): 50 days
- % TGD (NCI-H1417 SCLC xenograft; [4]): 92%
- TGD (NCI-H1417 SCLC xenograft; [4]): 24 days

From patent publication US10960005B2, “Treatment of relapsed and/or refractory solid tumors and non-hodgkin's lymphomas” (CELGENE QUANTICEL RESEARCH, INC., priority 2016, dated 2021)
